Assay results as given in article PMC3224021 (ACS medicinal chemistry letters, 2011).

Key:
human GALK = human GALK (Homo sapiens, UniProt P51570); assay: in vitro GALK; type: biochemical; details: for inhibitory activity against GALK (in words): in vitro GALK inhibitory assays, tested up to 50μM
human fibroblast cells = assay: cell tolerance / lethality in fibroblast cells; type: cell-based
[1] = tested on: GALK in patient fibroblast cells; assay: intracellular inhibition of GALK measured by reduction of gal-1P accumulation; type: cell-based, human; details: 50μM

Chain of human GALK (P51570 whole entry): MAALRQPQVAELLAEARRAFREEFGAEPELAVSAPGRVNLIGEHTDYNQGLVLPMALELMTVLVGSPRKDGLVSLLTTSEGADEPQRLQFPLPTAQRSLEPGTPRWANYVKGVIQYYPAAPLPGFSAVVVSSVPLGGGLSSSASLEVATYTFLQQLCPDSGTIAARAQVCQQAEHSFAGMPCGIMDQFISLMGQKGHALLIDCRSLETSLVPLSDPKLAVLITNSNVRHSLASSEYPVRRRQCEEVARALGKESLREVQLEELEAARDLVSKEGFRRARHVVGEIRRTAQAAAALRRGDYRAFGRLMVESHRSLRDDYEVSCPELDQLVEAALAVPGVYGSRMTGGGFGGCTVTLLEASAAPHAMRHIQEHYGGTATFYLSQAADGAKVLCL

Row | SMILES | inhibitory activity against GALK (in words) (human GALK) | other results
1 | N#CC1=C(SCc2ccccc2)SC(c2ccccc2O)NC1=O (stereo not shown) [compound 1] |  | IC50 (human GALK): 1400 ± 700 nM
2 | N#CC1=C(SCc2ccccc2)SC(c2ccc(O)c(O)c2)NC1=O (stereo not shown) [compound 2] |  | toxicity in patient cells (human fibroblast cells; concentration not given): toxicity
3 | CSC1=C(C#N)C(=O)NC(c2ccccc2O)S1 (stereo not shown) [compound 3] | possess inhibitory activities | 
4 | N#CC1=C(SCc2ccccc2)SC(c2ccc(C(=O)O)cc2)NC1=O (stereo not shown) [compound 4] | possess inhibitory activities | 
5 | CC1NC(=O)C(C#N)=C(SCc2ccccc2)S1 (stereo not shown) [compound 5] | did not display any inhibitory activity | 
6 | CC1(C)NC(=O)C(C#N)=C(SCc2ccccc2)S1 [compound 6] | did not display any inhibitory activity | 
7 | CCCCSC1=C(C#N)C(=O)NC(c2ccccc2O)S1 (stereo not shown) [compound 7] | not all the compounds with hydroxyl groups on the A ring displayed inhibitory activity | 
8 | N#CC1=C(SCc2ccccc2)SCNC1=O [compound 8] | did not display any inhibitory activity | 
9 | N#CC1=C(SCc2ccc(O)cc2)SC2(CCC(C(=O)O)CC2)NC1=O (stereo not shown) [compound 9] | exhibited no activity | 
10 | CSC1=C(C#N)C(=O)NC(c2ccc(Cl)cc2Cl)S1 (stereo not shown) [compound 10] | inactive | 
11 | CC(=O)Oc1ccc(C2NC(=O)C(C#N)=C(SCc3ccccc3)S2)cc1OC(C)=O (stereo not shown) [compound 13] |  | cell toxicity (human fibroblast cells; 50μM or higher concentrations): total cell lethality within hours
12 | N#CC1=C(SCc2cccc(N3CCOCC3)c2)SC(c2cc(O)ccc2O)NC1=O (stereo not shown) [compound 27] |  | cell tolerance (human fibroblast cells; up to 100μM): well tolerated; inhibition of GALK / lowering of gal-1P in cells (in words) [1]: neither 27 nor 29 was able to inhibit GALK or lowered gal-1P
13 | N#CC1=C(SCc2cccc(N3CCOCC3)c2)SC(c2ccc(O)cc2)NC1=O (stereo not shown) [compound 29] |  | cell tolerance / lethality (human fibroblast cells; 50μM): well-tolerated; cell lethality (human fibroblast cells; 100μM or higher): lethal to cells; inhibition of GALK / lowering of gal-1P in cells (in words) [1]: neither 27 nor 29 was able to inhibit GALK or lowered gal-1P
